This is an account of results in publication PMC9822280, “A Rapid and Sensitive Liquid Chromatography-Tandem Mass Spectrometry Bioanalytical Method for the Quantification of Encorafenib and Binimetinib as a First-Line Treatment for Advanced (Unresectable or Metastatic) Melanoma—Application to a Pharmacokinetic Study” (Molecules, 2022).

Like-named read-outs stand apart in the source and are kept apart here.

Series [1] is described as follows: Pharmacokinetic study in rats after oral administration of binimetinib and encorafenib. The conditions noted are these: male, Wistar, rat plasma, oral 3.8 mg/kg binimetinib and 20 mg/kg encorafenib, fasting; for AUC(0-t) / AUC(0-inf) / Cmax / MRT inf / half-life: mean ± SD; for AUC(0-t): read-out: AUC0-t (area under the curve up to the last sampling time); for AUC(0-inf): read-out: AUC0-∞ (area under the curve extrapolated to infinity); for Cmax: read-out: Cmax (maximum plasma concentration); for MRT inf: read-out: MRT0-∞ (mean residence time); for half-life: read-out: t1/2kel (half-life in elimination phase) (converted); for Tmax: read-out: Tmax (time taken to reach the maximum plasma concentration). It is filed as in vivo. Here is the method: The newly developed and validated LC-MS/MS assay was effectively applied to evaluate BNB and ENF in rat plasma for a pharmacokinetic study after oral administration of 3.8 mg/kg BNB and 20 mg/kg ENF for four healthy male Wistar rats under fasting conditions. […] The values acquired in the current investigation for BNB for t1/2kel and Cl/F parameters are consistent with in vivo BNB PK studies. Furthermore, the Tmax parameter for BNB is similar to that represented in a recently published paper.
Four healthy male Wistar rats (220–250 g) were brought from the Animal Care Center of King Saud University (Saudia Arabia). All experimental procedures were reviewed in accordance with the guidelines of King Saud University Institutional Research Ethics Committee (REC) with an ethics reference number (SE-19–109). Rats were acclimatized for 7 days to laboratory environments before the experiment was directed. Diet was prohibited for 12 h before the experiment, but the water was freely available. The dose of drugs was determined according to the body surface area employing the below-mentioned formula [22]. Human dose (mg/kg) = Animal dose (mg/kg) × animal Km/Human Km
Km is a factor used in dose conversion. It is a ratio of average body weight (kg) and body surface area (m^2). Km values for the rat and human are 6 and 37, respectively. Human dose for BNB and ENF was considered as 90 and 450 mg, respectively.
Blood samples (300 μL) were collected into heparinized 1.5 mL polythene tubes containing ethylenediamine tetraacetic acid dipotassium (EDTA K2) (anticoagulant) before drug administration and at 0.15, 0.5, 1, 2, 4, 6, 8, 12, 18, and 24 h after oral administration of binimetinib (3.8 mg/kg) and encorafenib (20 mg/kg). In the current study, both drugs were dissolved in 1% DMSO/saline. The samples were directly centrifuged at 3500 rpm for 10 min at 4 °C. The plasma obtained was stored at −80 °C until analysis. The same method of extraction described under calibration standards preparation (2.4.) was used for sample preparation. The PK parameters of BNB and ENF such as Cmax, Tmax, t1/2kel, AUC0–24, and AUC0–∞ were calculated by fitting the data to a non-compartmental analysis (NCA) model with PK Solver Add-In software.

Series [2] in a line: Stability of binimetinib and encorafenib in rat plasma under different storage conditions. It is filed as in vitro ADME. The conditions noted are these: for recovery at 24 h, 2400 ng/mL / recovery at 2400 ng/mL / recovery at 30 days, 2400 ng/mL: HQC 2400 ng/mL; for recovery at 2400 ng/mL / recovery at 1.5 ng/mL / recovery at 1800 ng/mL: n 3, read-out: Freeze and Thaw Stability at −80 °C (3 Cycles), Recovery (%); for recovery at 30 days, 2400 ng/mL / recovery at 30 days, 1.5 ng/mL / recovery at 30 days, 1800 ng/mL: n 3, read-out: Long Term Stability at −80 °C (30 Days), Recovery (%); for recovery at 24 h, 1.5 ng/mL / recovery at 1.5 ng/mL / recovery at 30 days, 1.5 ng/mL: LQC 1.5 ng/mL; for recovery at 24 h, 1800 ng/mL / recovery at 1800 ng/mL / recovery at 30 days, 1800 ng/mL: MQC 1800 ng/mL. The protocol:
An important process of bioanalytical method validation is stability assessment. Stability of BNB and ENF was studied throughout the analysis of three QC samples (LQC, MQC and HQC) of each drug after the application of the different storage conditions. The different parameters investigated include short-term stability at room temperature for 24 h, autosampler stability at 10 °C for 24 h, three freeze and thaw cycles after storing at −80 °C, and long-term stability at −80 °C for 30 days. The results of stability experiments were satisfactory and complied with the accuracy criteria of ±15% of its theoretical concentration.
The stability of ENF and BNB was assessed after exposing the QC samples at LQC, MQC, and HQC to different storage conditions (temperature and time). The applied conditions include short-term stability at room temperature for 24 h in an autosampler for 24 h at 10 °C. Long-term stability was assessed after storing QCs for 30 days at −80 °C. Freeze and thaw stability were evaluated after three freezing and thawing cycles and compared with freshly prepared QCs. Moreover, the stock solution stability for ENF and BNB and IS was studied at a temperature of 5 ± 2 °C. All sample accuracies should be ± 15% to be considered stable.

The mark [3] stands for this setting: n 3, read-out: Autosampler Stability at 10 °C (24 h), Recovery (%).
Where [4] appears, read: n 3, read-out: Short Term Stability at Room Temperature (24 h), Recovery (%).

As for `Cn1cnc2c(F)c(Nc3ccc(Br)cc3F)c(C(=O)NOCCO)cc21` [Binimetinib, binimetinib], in series [1], the AUC(0-t) was 12400 ± 1860 ng·h/mL, the AUC(0-inf) is 18200 ± 1310 ng·h/mL, the Cmax was 3430 ± 460 ng/mL and the MRT inf came out at 4.5 ± 0.28 h. In series [1], the half-life was 3.39 ± 0.43 h and the Tmax is 1 h. In series [2] (setting [3]), the recovery at 24 h, 2400 ng/mL came out at 95.4%; the recovery at 24 h, 1.5 ng/mL stood at 97.3%; the recovery at 24 h, 1800 ng/mL stood at 104%. In series [2], the recovery at 2400 ng/mL came out at 95.2%; the recovery at 30 days, 2400 ng/mL came out at 94.8%; the recovery at 1.5 ng/mL was 104%; the recovery at 30 days, 1.5 ng/mL came out at 95.5%. Also, in series [2], the recovery at 1800 ng/mL was determined as 104% and the recovery at 30 days, 1800 ng/mL was 104%. Besides, in series [2] (setting [4]), the recovery at 24 h, 2400 ng/mL turned out to be 93.4%; the recovery at 24 h, 1.5 ng/mL turned out to be 96.2%; the recovery at 24 h, 1800 ng/mL was determined as 103%.

With `COC(=O)N[C@@H](C)CNc1nccc(-c2cn(C(C)C)nc2-c2cc(Cl)cc(NS(C)(=O)=O)c2F)n1` [Encorafenib, encorafenib], in series [1], the AUC(0-t) is 30300 ± 3010 ng·h/mL, the AUC(0-inf) is 36500 ± 3920 ng·h/mL, the Cmax is 16400 ± 1470 ng/mL and the MRT inf stood at 3.23 ± 0.4 h. In series [1], the half-life is 2.48 ± 0.24 h and the Tmax was found to be 1 h. In series [2] (setting [3]), the recovery at 24 h, 2400 ng/mL came to 92.4%; the recovery at 24 h, 1.5 ng/mL was found to be 96.6%; the recovery at 24 h, 1800 ng/mL is 99.8%. In series [2], the recovery at 2400 ng/mL was 96.5%; the recovery at 30 days, 2400 ng/mL was determined as 94.6%; the recovery at 1.5 ng/mL came out at 99.5%; the recovery at 30 days, 1.5 ng/mL was determined as 97.5%. Also, in series [2], the recovery at 1800 ng/mL was 96.8% and the recovery at 30 days, 1800 ng/mL was 102%. In addition, in series [2] (setting [4]), the recovery at 24 h, 2400 ng/mL stood at 94.5%; the recovery at 24 h, 1.5 ng/mL came to 95.2%; the recovery at 24 h, 1800 ng/mL turned out to be 103%.
